Test results taken from PubChem BioAssay (NCI).
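Dose response: 5 concentrations. Exposure: 48 h. Format: 96-well plates. Endpoint: linear interpolation; highest concentration if not reached. TGI marks complete inhibition of growth.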

Experiments:
Test in all cases: NCI anticancer screen, dose series, 48 h
CAKI-1 renal = test system: CAKI-1 renal
COLO 205 colon = test system: COLO 205 colon
DU-145 prostate = test system: DU-145 prostate
HOP-92 NSCLC = test system: HOP-92 NSCLC
HT29 colon = test system: HT29 colon
LOX IMVI melanoma = test system: LOX IMVI melanoma
M14 melanoma = test system: M14 melanoma
MCF7 breast = test system: MCF7 breast
MDA-MB-435 = test system: MDA-MB-435
NCI-H460 lung = test system: NCI-H460 lung
NCI/ADR-RES ovarian = test system: NCI/ADR-RES ovarian
OVCAR-4 ovarian = test system: OVCAR-4 ovarian
OVCAR-5 ovarian = test system: OVCAR-5 ovarian
OVCAR-8 ovarian = test system: OVCAR-8 ovarian
RXF 393 renal = test system: RXF 393 renal
SK-MEL-5 melanoma = test system: SK-MEL-5 melanoma
SN12C renal = test system: SN12C renal
SNB-19 CNS = test system: SNB-19 CNS
U251 CNS = test system: U251 CNS
UO-31 renal = test system: UO-31 renal

SMILES	TGI (CAKI-1 renal) [µM]	TGI (COLO 205 colon) [µM]	TGI (DU-145 prostate) [µM]	TGI (HOP-92 NSCLC) [µM]	TGI (HT29 colon) [µM]	TGI (LOX IMVI melanoma) [µM]	TGI (M14 melanoma) [µM]	TGI (MCF7 breast) [µM]	TGI (MDA-MB-435) [µM]	TGI (NCI-H460 lung) [µM]	TGI (NCI/ADR-RES ovarian) [µM]	TGI (OVCAR-4 ovarian) [µM]	TGI (OVCAR-5 ovarian) [µM]	TGI (OVCAR-8 ovarian) [µM]	TGI (RXF 393 renal) [µM]	TGI (SK-MEL-5 melanoma) [µM]	TGI (SN12C renal) [µM]	TGI (SNB-19 CNS) [µM]	TGI (U251 CNS) [µM]	TGI (UO-31 renal) [µM]
O=C(Cn1c(-c2ccccc2)cc2ccccc21)N1CCOCC1	> 100	> 100	> 100	> 100	> 100	> 100	> 100	> 100	> 100	> 100	> 100	> 100	> 100	> 100	> 100	> 100	> 100	> 100	> 100	> 100
O=C(CCc1ccccc1)NCCc1ccc(O)c(O)c1	29.4	58.5	> 100	> 78.7	> 69.3	> 100	> 100	93.9	29.4	> 100	> 100	46.7	> 31.6	> 85.6	> 100	> 50.6	> 69.5	> 100	> 100	49.2
Nc1c(/C=C/c2cc3cc(C4=NCCN4)ccc3o2)[nH]c2cc(C3=NCCN3)ccc12	> 100	> 100	> 100	> 100	> 100	> 100	> 100	> 100	> 100	> 100	> 100	> 100	> 100	> 100	> 100	> 100	> 100	> 100	> 100	> 100
COc1ccc(/[N+]([O-])=C/c2ccccc2OC(=S)S)cc1	> 100	> 100	> 100	64.4	49.7	52.7	91.5	> 100	55.7	> 100	94.9	> 100	> 100	45	> 100	> 100	56.9	> 100	> 100	> 100
O=C1c2sccc2C(=O)c2c(CO)csc21	48.2	12.2	9.37	26.1	9.55	10.6	7.55	18.9	4.62	6.96	19.1	9.46	> 53	12.4	3.22	2.2	22.4	20.8	23.2	26.2
Cc1nnc(N)s/c1=N/O	> 100	> 100	> 100	> 100	> 100	> 100	> 100	> 100	> 100	> 100	> 100	> 100	> 100	> 100	> 100	> 100	> 100	> 100	> 100	> 100
